Reference: paper PMC6511942, “Exploitation of Antibiotic Resistance as a Novel Drug Target: Development of a β-Lactamase-Activated Antibacterial Prodrug” (Journal of Medicinal Chemistry, 2019)
Converted amounts (≈) assume the structure as drawn. “And” between values parts separate entries of the source, which are not always exact repeats. Equal values may be shown once. Read-outs that look alike come from different tables or passages of the source.

Tests used:
[1] = system: Ec19 (CTX-M-15, ciprofloxacin resistant); assay: microbe, parasite or virus in culture; format: cell-based, E. coli
E. coli CFT073 pCTX-M-1 = assay: Bactericidal activity (survival by CFU counts), CFT073 pCTX-M-1; format: cell-based; settings: 78 nM
[2] = system: CFT073 + pSU18 + CTX-M-1 (pCTX); assay: microbe, parasite or virus in culture; format: cell-based, E. coli
[3] = system: E. faecalis ATCC29212 and GW01; assay: Antibacterial activity against E. faecalis strains without β-lactamase; format: cell-based; settings: two strains that did not express β-lactamase
CFT073 + pSU18 (pEMP) = assay: microbe, parasite or virus in culture; format: cell-based, E. coli
[4] = system: Ec12 (CTX-M-15, ciprofloxacin resistant); assay: microbe, parasite or virus in culture; format: cell-based, E. coli
CFT073 E. coli cells WT = assay: MIC, E. coli CFT073 WT; format: cell-based; settings: Escherichia coli
CFT073 pNDM (NDM-1) = assay: microbe, parasite or virus in culture; format: cell-based, E. coli; settings: Escherichia coli, read-out: MIC value pNDM
CFT073 pKPC (KPC-3) = assay: microbe, parasite or virus in culture; format: cell-based, E. coli; settings: Escherichia coli, read-out: MIC value pKPC
recombinant DNA gyrase = target: T1, recombinant DNA gyrase (Escherichia coli, UniProt P0AES4+P0AES6); assay: Recombinant DNA gyrase supercoiling assay ± CTX-M-15; format: biochemical, E. coli
T1 construct: purchased Inspiralis
T1 sequence (P0AES4 whole entry, one chain of several): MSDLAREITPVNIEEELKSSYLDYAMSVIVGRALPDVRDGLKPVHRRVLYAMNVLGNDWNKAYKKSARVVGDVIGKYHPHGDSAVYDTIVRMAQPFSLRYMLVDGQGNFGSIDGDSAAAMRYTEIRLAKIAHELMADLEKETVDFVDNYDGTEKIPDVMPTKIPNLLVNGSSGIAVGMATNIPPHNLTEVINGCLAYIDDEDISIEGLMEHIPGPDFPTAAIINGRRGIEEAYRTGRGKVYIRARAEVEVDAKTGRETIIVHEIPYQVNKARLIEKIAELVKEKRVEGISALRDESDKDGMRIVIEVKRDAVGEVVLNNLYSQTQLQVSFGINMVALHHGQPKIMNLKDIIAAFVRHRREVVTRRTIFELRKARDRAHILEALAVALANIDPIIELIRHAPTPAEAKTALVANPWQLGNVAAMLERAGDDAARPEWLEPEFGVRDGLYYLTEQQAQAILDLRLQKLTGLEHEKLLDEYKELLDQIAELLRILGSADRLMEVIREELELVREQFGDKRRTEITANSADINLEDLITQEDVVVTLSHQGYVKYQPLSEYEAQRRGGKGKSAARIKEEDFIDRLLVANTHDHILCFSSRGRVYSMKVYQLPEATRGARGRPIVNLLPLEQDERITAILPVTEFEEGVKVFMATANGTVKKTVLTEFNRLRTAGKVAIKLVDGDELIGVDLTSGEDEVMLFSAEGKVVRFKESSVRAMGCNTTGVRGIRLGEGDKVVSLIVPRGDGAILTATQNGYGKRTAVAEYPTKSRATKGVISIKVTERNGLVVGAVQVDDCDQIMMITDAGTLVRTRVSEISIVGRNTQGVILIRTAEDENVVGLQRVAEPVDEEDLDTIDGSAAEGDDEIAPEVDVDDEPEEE

[5] = system: Ec17 (CTX-M-15, ciprofloxacin sensitive); assay: microbe, parasite or virus in culture; format: cell-based, E. coli
[6] = system: Ec11 (CTX-M-15, ciprofloxacin sensitive); assay: microbe, parasite or virus in culture; format: cell-based, E. coli
[7] = system: Ec13 (CTX-M-15, ciprofloxacin resistant); assay: microbe, parasite or virus in culture; format: cell-based, E. coli
[8] = system: Ec16 (CTX-M-15, ciprofloxacin sensitive); format: cell-based, E. coli; settings: strain EC16, ciprofloxacin sensitive
E. coli CFT073 pEMP = assay: Bactericidal activity (survival by CFU counts), CFT073 pEMP; format: cell-based; settings: 78 nM, CFU counts over time
Method: Finally, the ability of prodrug 35 to kill bacteria rather than arrest growth was evaluated. […]
determined as the lowest concentration of antibiotic that inhibited visible bacterial growth.
OD595 measurements were recorded on a BioRad 1Mark Microplate Reader. Measurements were background corrected against the no-inoculum control and normalized to the no-drug […]
Determination of bactericidal activity
Stationary-phase bacteria were inoculated into 3 ml MHB containing no antibiotic, […]
subsequently incubated at 37 °C with shaking (180 r.p.m.) and bacterial viability determined […]
been shown previously to be bactericidal.
Recombinant β-lactamase assay
Each compound was incubated for 1 hour at room temperature in 100 mM NaPO4 (pH 7) ± 0.5 M NaOH. The wavelength at which the difference between un-hydrolysed and hydrolysed compound was the greatest was selected (typically 263 nm) and a compound concentration vs. absorbance standard curve was generated. Compounds, typically 250 μM in assay buffer (100 mM NaPO4 (pH 7)), were dispensed into a Corning 96-well UV transparent flat bottom plate. Recombinant Amp-C in assay buffer was added immediately before incubatio n in the microplate reader at 37 °C. UV absorbance was measured every 20 s for 1 h on a BMG LABTECH SPECTROstarNano. Kinetic parameters were determined by half -life analysis.
NMR β-lactamase hydrolysis assay […]

CC(=O)N[C@@H]1C(=O)N2C(C(=O)O)=C(COC(=O)c3cn(C4CC4)c4cc(N5CCNCC5)c(F)cc4c3=O)CS[C@H]12 [compound 35, (6R,7R)-7-Acetamido-3-(((1-cyclopropyl-6-fluoro-4-oxo-7-(piperazin-1-yl)-1,4-dihydroquinoline-3-carbonyl)oxy)methyl)-8-oxo-5-thia-1-azabicyclo[4.2.0]oct-2-ene-2-carboxylic Acid]
MIC ([1]; Escherichia coli, read-out: MIC value Ec19): > 5 µM
arrest in bacterial growth (in words) ([1]; strain EC19, ciprofloxacin resistant): no arrest in bacterial growth
killing activity in E. coli expressing CTX-M-1 (E. coli CFT073 pCTX-M-1; CFU counts over time): almost identical to free ciprofloxacin
greater killing of E. coli expressing CTX-M-1 compared with bacteria not expressing the enzyme (E. coli CFT073 pCTX-M-1; 6 h incubation, CFU counts): > 100 fold
MIC assay in the presence of human serum ([2]; CFT073 pCTX-M-1, 10 % normal human serum): equivalent to those obtained in the absence of serum
MIC higher than ciprofloxacin 31 ([2]; CFT073 strains expressing CTX-M-1, NDM1 or KPC): 2 fold
MIC ([2]; Escherichia coli, read-out: MIC value pCTX, CFT073 pCTX): 0.04 µg/mL and 0.063 µM
activity against E. faecalis compared to ciprofloxacin [3]: reduced activity compared to ciprofloxacin
decrease in activity (MIC) compared to ciprofloxacin 31 (CFT073 + pSU18 (pEMP); CFT073 WT and pEMP, absence of β-lactamase): 10 fold
MIC assay in the presence of human serum (CFT073 + pSU18 (pEMP); CFT073 pEMP, 10 % normal human serum): equivalent to those obtained in the absence of serum
MIC (CFT073 + pSU18 (pEMP); Escherichia coli, read-out: MIC value pEMP, CFT073 empty plasmid): 0.312 µM (≈ 0.183 µg/mL)
MIC ([4]; Escherichia coli, read-out: MIC value Ec12): > 5 µM
arrest in bacterial growth (in words) ([4]; strain EC12, ciprofloxacin resistant): no arrest in bacterial growth
MIC (CFT073 E. coli cells WT; read-out: MIC value WT, CFT073 WT): 0.312 µM (≈ 0.183 µg/mL)
MIC (CFT073 E. coli cells WT; CFT073 WT, read-out: MIC value WT): 0.18 µg/mL and 0.31 µM
MIC (CFT073 pNDM (NDM-1)): 0.04 µg/mL and 0.063 µM
MIC (CFT073 pKPC (KPC-3)): 0.04 µg/mL and 0.063 µM
inhibition of DNA gyrase (recombinant DNA gyrase; absence of CTX-M-15): not observed
reduction of DNA gyrase activity (recombinant DNA gyrase; presence of CTX-M-15, 1 μM compound): > 50%
MIC ([5]; Escherichia coli, read-out: MIC value Ec17): 2.5 µM (≈ 1.46 µg/mL)
antibacterial activity (in words) ([5]; strain EC17, ciprofloxacin sensitive): confirmed
MIC ([6]; Escherichia coli, read-out: MIC value Ec11): 0.63 µM (≈ 0.369 µg/mL)
antibacterial activity (in words) ([6]; strain EC11, ciprofloxacin sensitive): confirmed
MIC ([7]; Escherichia coli, read-out: MIC value Ec13): > 5 µM
arrest in bacterial growth (in words) ([7]; strain EC13, ciprofloxacin resistant): no arrest in bacterial growth
antibacterial activity (in words) [8]: confirmed
growth of CFT073 expressing empty plasmid (E. coli CFT073 pEMP): growth comparable to no treatment controls
